This note sets out measurements from patent US20230117034A1, “PYRAZOLOTRIAZINES” (Bayer Aktiengesellschaft, priority 2019, published 2023).

Some results are limits rather than exact numbers.

In one assay the target is T1, CDK2/CycE (Homo sapiens, UniProt P24941).
T1 construct: purchased ProQinase GmbH (Freiburg, Germany); host or cells: insect cells (Sf9)
The assay can be described thus: CDK2/CycE kinase assay (TR-FRET, 2 mM ATP). The class given is biochemical. As to conditions: 2 mM ATP (high ATP); median; read-out: CDK2/CyclinE, 2 mM ATP (high ATP), IC50 (median). In outline: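 Biotin-peptide phosphorylation (0.75 µM substrate, 2 mM ATP final, 25 min, 22 °C) by Sf9-expressed GST-CDK2/GST-CycE, after a 15-min compound pre-binding step. Inhibition scaled between enzyme-free (100%) and uninhibited (0%) wells.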
In general terms: In TR-FRET formats the signal depends on donor and acceptor labels being close together.

In assay [1] the target is T2, CDK12 (nuclear staining in CAL-120 cells) (Homo sapiens, UniProt Q9NYV4).
T2 construct: endogenous in cells; host or cells: CAL-120 human breast cancer cells (DSMZ ACC 459)
The assay can be described thus: CDK12 nuclear protein level: immunofluorescence/high content analysis (CAL-120). Format: cell-based. As to conditions: for DC50: CAL-120 cells, 24 h, immunofluorescence, 50% reduction of nuclear CDK12 staining intensity, median, read-out: CDK12 degradation IF, DC50- [mol/l] (median); for (IC50 CDK12 high ATP) to (Degradation DC50 CDK12) ratio: ratio of IC50 CDK12 high ATP kinase assay to DC50 CDK12 degradation (IF, CAL-120). In outline: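 DC50 is the degrader concentration that halves nuclear CDK12 immunofluorescence relative to controls, measured by high-content imaging. CAL-120 cells were exposed to compound for 24 h at 37 °C before PFA fixation, and signal was normalized to DMSO and control wells.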

Assay [2] has as its system BRCA1 mRNA expression in MDA-MB-231 cells. The assay can be described thus: qRT-PCR assay: BRCA1 mRNA expression in MDA-MB-231. Format: cell-based, human. The note with it: Homo sapiens, MDA-MB-231, Inhibition of BRCA1 mRNA expression in MDA-MB-231 cells; median; read-out: RTqPCR-MDA-MB-231, IC50, BRCA1 (median). Summed up: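 First, cells are plated at 200,000 per well and allowed 24 h. Second, test substances are applied continuously for a further 24 h. Finally, RNA is isolated, 600 ng is converted to cDNA, and qPCR quantifies the transcript relative to GAPDH.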
(In general: In qPCR the cycle at which signal appears reflects the starting amount.)

T2 sequence (Q9NYV4 whole entry): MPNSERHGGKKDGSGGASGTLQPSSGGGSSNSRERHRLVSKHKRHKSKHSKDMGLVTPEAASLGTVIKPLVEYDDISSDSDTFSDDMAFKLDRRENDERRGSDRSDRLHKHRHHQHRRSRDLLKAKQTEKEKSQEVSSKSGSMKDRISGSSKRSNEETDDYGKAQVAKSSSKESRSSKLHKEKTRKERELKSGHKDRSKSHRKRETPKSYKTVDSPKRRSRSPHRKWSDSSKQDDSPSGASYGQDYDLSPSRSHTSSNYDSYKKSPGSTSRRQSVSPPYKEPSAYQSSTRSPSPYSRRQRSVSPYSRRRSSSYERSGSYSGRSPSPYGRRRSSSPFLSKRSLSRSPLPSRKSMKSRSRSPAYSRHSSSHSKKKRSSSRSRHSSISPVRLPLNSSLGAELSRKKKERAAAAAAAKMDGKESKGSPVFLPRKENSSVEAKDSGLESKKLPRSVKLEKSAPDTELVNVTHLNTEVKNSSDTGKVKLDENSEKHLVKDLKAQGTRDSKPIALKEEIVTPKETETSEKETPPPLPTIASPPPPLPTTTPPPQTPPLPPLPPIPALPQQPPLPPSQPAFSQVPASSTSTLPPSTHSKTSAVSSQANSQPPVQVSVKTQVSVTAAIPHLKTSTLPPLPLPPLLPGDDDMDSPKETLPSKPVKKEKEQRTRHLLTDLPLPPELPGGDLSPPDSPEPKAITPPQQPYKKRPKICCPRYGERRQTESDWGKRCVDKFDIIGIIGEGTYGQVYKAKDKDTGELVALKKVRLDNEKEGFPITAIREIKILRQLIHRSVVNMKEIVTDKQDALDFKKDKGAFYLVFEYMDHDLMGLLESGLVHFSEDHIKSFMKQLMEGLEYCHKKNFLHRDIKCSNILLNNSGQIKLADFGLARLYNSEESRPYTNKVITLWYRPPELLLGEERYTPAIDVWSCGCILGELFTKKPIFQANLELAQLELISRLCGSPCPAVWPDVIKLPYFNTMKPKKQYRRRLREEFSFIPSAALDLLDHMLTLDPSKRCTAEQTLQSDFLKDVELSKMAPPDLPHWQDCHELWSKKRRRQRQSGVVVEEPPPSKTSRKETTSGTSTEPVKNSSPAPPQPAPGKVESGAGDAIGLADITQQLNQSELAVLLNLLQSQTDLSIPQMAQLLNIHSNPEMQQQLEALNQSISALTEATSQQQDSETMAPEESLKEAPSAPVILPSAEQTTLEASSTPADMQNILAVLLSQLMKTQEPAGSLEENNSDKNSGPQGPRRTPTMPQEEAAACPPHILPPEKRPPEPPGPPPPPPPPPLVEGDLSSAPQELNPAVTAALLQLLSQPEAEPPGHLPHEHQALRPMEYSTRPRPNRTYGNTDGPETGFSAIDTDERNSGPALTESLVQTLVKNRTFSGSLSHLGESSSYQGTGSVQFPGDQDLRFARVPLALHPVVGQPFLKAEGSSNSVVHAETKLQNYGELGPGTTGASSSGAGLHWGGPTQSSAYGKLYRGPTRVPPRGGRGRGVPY
T2 sequence (O75909 whole entry partner): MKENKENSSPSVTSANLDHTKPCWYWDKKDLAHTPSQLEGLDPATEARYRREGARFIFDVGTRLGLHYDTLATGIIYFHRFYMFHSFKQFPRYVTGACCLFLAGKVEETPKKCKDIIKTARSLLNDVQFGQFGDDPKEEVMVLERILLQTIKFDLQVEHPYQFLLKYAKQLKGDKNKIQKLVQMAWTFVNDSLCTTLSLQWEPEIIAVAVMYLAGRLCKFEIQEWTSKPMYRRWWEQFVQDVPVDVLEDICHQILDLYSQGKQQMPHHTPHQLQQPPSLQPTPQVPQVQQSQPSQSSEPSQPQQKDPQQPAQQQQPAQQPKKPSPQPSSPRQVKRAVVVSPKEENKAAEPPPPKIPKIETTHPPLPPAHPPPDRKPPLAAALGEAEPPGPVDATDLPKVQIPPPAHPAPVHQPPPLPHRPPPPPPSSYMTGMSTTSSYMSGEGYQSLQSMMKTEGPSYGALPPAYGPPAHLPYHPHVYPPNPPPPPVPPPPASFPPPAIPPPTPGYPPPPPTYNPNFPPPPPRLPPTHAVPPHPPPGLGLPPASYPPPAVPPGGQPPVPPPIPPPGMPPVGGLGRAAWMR

As for `C[C@@H]1CN(c2nc(NCc3nc4cc(F)ccc4[nH]3)n3ncc(Br)c3n2)C[C@H](C)O1` [Example 110, 8-bromo-2-[(2R,6S)-2,6-dimethylmorpholin-4-yl]-N-[(5-fluoro-1H-benzimidazol-2-yl)methyl]pyrazolo[1,5-a][1,3,5]triazin-4-amine], the IC50 on CDK2/CycE was 8210 nM. For the same compound, in assay [1], the DC50 is 1.03 nM and the “(IC50 CDK12 high ATP) to (Degradation DC50 CDK12) ratio” value stood at 394. The IC50 in assay [2] stood at 7.51 nM.
On the same counts, the results for `Fc1cc(F)cc(-c2nnc(CNc3nc(N4CCOCC4)nc4c(Br)cnn34)[nH]2)c1` [Example 105, 8-bromo-N-{[5-(3,5-difluorophenyl)-4H-1,2,4-triazol-3-yl]methyl}-2-(morpholin-4-yl)pyrazolo[1,5-a][1,3,5]triazin-4-amine] are 826 nM, 2.49 nM, 429 and 8.43 nM.
In the case of `N=S1(=O)CCN(c2nc(NCc3nc4ccccc4[nH]3)n3ncc(Br)c3n2)CC1` [Example 145, 4-(4-{[(1H-benzimidazol-2-yl)methyl]amino}-8-bromopyrazolo[1,5-a][1,3,5]triazin-2-yl)-1-imino-1lambda^6-thiomorpholin-1-one], on CDK2/CycE, the IC50 came to 6140 nM. For the same compound, in assay [1], the DC50 worked out at 16.8 nM and the “(IC50 CDK12 high ATP) to (Degradation DC50 CDK12) ratio” value came to 751. For the same compound, the IC50 in assay [2] stood at 190 nM.
Turning to `CN1CCN(c2nc(NCc3nc4cc(F)ccc4[nH]3)n3ncc(Br)c3n2)CC1` [Example 134, 8-bromo-N-[(5-fluoro-1H-benzimidazol-2-yl)methyl]-2-(4-methylpiperazin-1-yl)pyrazolo[1,5-a][1,3,5]triazin-4-amine], the IC50 stood at 12000 nM on CDK2/CycE and 5.5 nM in assay [2]. Further, the DC50 in assay [1] worked out at 0.991 nM. Also, the “(IC50 CDK12 high ATP) to (Degradation DC50 CDK12) ratio” value in assay [1] is more than 17850.
For the compound `O=S1(=O)CCN(c2nc(NCc3nc4ccccc4[nH]3)n3ncc(Br)c3n2)CC1` [Example 166, 4-(4-{[(1H-benzimidazol-2-yl)methyl]amino}-8-bromopyrazolo[1,5-a][1,3,5]triazin-2-yl)-1 lambda^6-thiomorpholine-1,1-dione], the IC50 at CDK2/CycE amounted to 4700 nM. Further, in assay [1], the DC50 came out at 3.39 nM and the “(IC50 CDK12 high ATP) to (Degradation DC50 CDK12) ratio” value is recorded as 1800. For the same compound, the IC50 in assay [2] was 46.2 nM.
